Patent US20030092640A1, “Azalide antibiotic compositions” (Pfizer Inc., priority 2001, published 2003)
Values after ≈ are worked out from the molar mass of the structure shown. Values joined by “and” are separate entries in the source; they are usually repeats but may differ in a detail not shown here. Equal entries are not always repeated.

Experiments:
[1] = system: Pasteurella multocida (strain 59A067); test: Assay I liquid dilution MIC, P. multocida; type: cell-based; settings: 100% inhibition of growth, 37° C., 18 hours, BHI broth, read-out: MIC against P. multocida
Procedure: This assay employs conventional methodology and interpretation criteria and is designed to test for activity against Pasteurella multocida, using the liquid dilution method in microliter format. A single colony of P. multocida (strain 59A067) is inoculated into 5 mL of brain heart infusion (BHI) broth. The azalide formulation is prepared by solubilizing 1 mg of the azalide composition in 125 μL of dimethylsulfoxide (DMSO). Dilutions of the azalide compositions are prepared using uninoculated BHI broth. The concentrations of the azalide compounds used range from 200 μg/mL to 0.098 μg/mL by two-fold serial dilutions. The P. multocida inoculated BHI is diluted with uninoculated BHI broth to make a 10^4 cell suspension per 200 μL. The BHI cell suspensions are mixed with respective serial dilutions of the azalide compositions, and incubated at 37° C. for 18 hours.
Accordingly, as expected, the azalide compounds used in this invention are active against a variety of organisms.

E. coli = test: Assay I liquid dilution MIC, E. coli; type: cell-based; settings: Escherichia coli, 18 h, read-out: MIC against E. coli
S. aureus = test: Assay I liquid dilution MIC, S. aureus; type: cell-based; settings: Staphylococcus aureus, 18 h, read-out: MIC against S. aureus
[2] = Potency retention (HPLC stability) of azalide in aqueous propylene glycol/citric acid compositions; type: physicochemical; settings: 0.1 M citric acid
Procedure: As used in this application, the term “potency” means the amount of an azalide compound present in a “test” sample subjected to a particular set of experimental conditions during a particular time interval, relative to the amount of the azalide compound present in an otherwise identical “control” sample stored at 5° C. for the same time interval. Upon completion of the experiment for a given sample, the test and control samples are typically subjected to appropriate processing steps to allow accurate determination of the amount of the azalide compound. Relative amounts of azalide compound in the test and control samples may be determined by any number of means which are well-known in the art, such as high performance liquid chromatography (“HPLC”), nuclear magnetic resonance spectroscopy (“NMR”), gas chromatography (“GC”), mass spectrometry (“MS”), liquid chromatography/mass spectrometry (“LC/MS”), GC/MS, and thin layer chromatography (“TLC”).
Preferred methods for determining that a stable azalide composition has been obtained include gel chromatography, thin-layer chromatography, and HPLC. More preferably, HPLC is used. To monitor the compositions of the invention for potency, after dilution to final volume and sterilization by filtration, the compositions were subdivided into 3.5 mL glass vials which were sealed with rubber stoppers and an aluminum crimp. For the tests reported below, approximately 10 vials containing 2.5 mL each were prepared.
Approximately 30 mL of each composition listed in Table 1 below was prepared as follows:
1) Sufficient citric acid was added to Water for Injection to produce a solution having a final concentration of acid of 0.1 M;
2) The compound of formula 1a or 1b was added in an amount to produce a final azalide concentration of 100 mg/mL (0.12 mmol/mL of the composition), and the mixture was stirred until the azalide was dissolved;
3) Propylene glycol was added to produce a concentration in the final mixture of from about 25% to about 75% by weight relative to the total volume;
4) The pH was adjusted by addition of 10% aqueous HCl or 10 M aqueous NaOH as necessary;
5) Water for Injection was added to bring the volume to 30 mL;
6) Each sample was subdivided by filtration through a 0.22 micron Millex GV filter into 3.5 mL glass vials which were each sealed with a rubber stopper and an overseal consisting of an aluminum crimp. Approximately 10 vials containing 2.5 mL each were prepared for each sample.
To monitor the stability of the azalide compositions, vials were assayed by HPLC after exposure to elevated temperatures for a period of time. Aliquots were removed from vials and diluted with a mixture of 15% 10 mM potassium phosphate buffer, pH 6.5, 85% 1:1 (v/v) acetonitrile:methanol to a concentration of approximately 1.0 mg of the compound of formula 1 per mL total sample volume. Diluted samples were subjected to chromatography in a Waters Alliance 2690 HPLC system having a 2487 UV detector. The column was a Waters Symmetry C-18, 5 micron (250×4.6 mm), the mobile phase was the same as the phosphate/acetonitrile/methanol diluent above and the flow rate was 1 mL/minute. Peaks were detected by monitoring ultraviolet absorption at 210 nm. Relative amounts of azalide compound in the experimental samples and the controls were determined by taking the ratio of their relative chromatogram-peak areas. Although HPLC was used in this experiment, other known methods, including NMR, GC, MS, LC/MS, GC/MS, and TLC can be used to evaluate the potency of the compound of formula 1.
The results are reported in Table 1 below as a percentage of the compound of formula 1 remaining after exposure to various temperature and duration conditions, relative to the amount of the compound present in an otherwise identical sample stored at 5° C. for the same time interval.

[3] = preparation 1: propylene glycol 50 w/v %, pH 4.5, 100 mg/mL azalide
[4] = preparation 2: propylene glycol 25 w/v %, pH 5.0, 100 mg/mL azalide
[5] = preparation 3: propylene glycol 75 w/v %, pH 5.0, 100 mg/mL azalide
[6] = preparation 7: propylene glycol 25 w/v %, pH 6.0, 100 mg/mL azalide
[7] = preparation 8: propylene glycol 75 w/v %, pH 6.0, 100 mg/mL azalide
[8] = preparation 9: propylene glycol 50 w/v %, pH 6.5, 100 mg/mL azalide
[9] = preparations 4, 5, 6: propylene glycol 50 w/v %, pH 5.5, 100 mg/mL azalide

| Compound | MIC [1] [µg/mL] | MIC (E. coli) [µg/mL] | MIC (S. aureus) [µg/mL] | Potency (% of 5° C.) 6 weeks, 50° C. [2, 3] [%] | Potency (% of 5° C.) 12 weeks, 50° C. [2, 3] [%] | Potency (% of 5° C.) 6 weeks, 50° C. [2, 4] [%] | Potency (% of 5° C.) 12 weeks, 50° C. [2, 4] [%] | Potency (% of 5° C.) 6 weeks, 50° C. [2, 5] [%] | Potency (% of 5° C.) 12 weeks, 50° C. [2, 5] [%] | Potency (% of 5° C.) 6 weeks, 50° C. [2, 6] [%] | Potency (% of 5° C.) 12 weeks, 50° C. [2, 6] [%] | Potency (% of 5° C.) 6 weeks, 50° C. [2, 7] [%] | Potency (% of 5° C.) 12 weeks, 50° C. [2, 7] [%] | Potency (% of 5° C.) 6 weeks, 50° C. [2, 8] [%] | Potency (% of 5° C.) 12 weeks, 50° C. [2, 8] [%] | Potency (% of 5° C.) 6 weeks, 50° C. [2, 9] | Potency (% of 5° C.) 12 weeks, 50° C. [2, 9] |
| --- | --- | --- | --- | --- | --- | --- | --- | --- | --- | --- | --- | --- | --- | --- | --- | --- | --- |
| CC[C@H]1OC(=O)[C@H](C)[C@@H](O[C@H]2C[C@@](C)(OC)[C@](O)(CNC(C)C)[C@H](C)O2)[C@H](C)[C@@H](O[C@@H]2O[C@H](C)C[C@H](N(C)C)[C@H]2O)[C@](C)(O)C[C@@H](C)CN(C)[C@H](C)[C@@H](O)[C@]1(C)O [Compound 1a, 1-Oxa-6-azacyclopentadecan-15-one, 13-[[2,6-dideoxy-3-C-methyl-3-O-methyl-4-C-[[(1-methylethyl)amino]methyl]-α-L-ribo-hexopyranosyl]oxy]-2-ethyl-3,4,10-trihydroxy-3,5,6,8,10,12,14-heptamethyl-11-[[3,4,6-trideoxy-3-(dimethylamino)-β-D-xylo-hexopyranosyl]oxy]-, (2R,3S,4R,5R,8R,10R,11R,12S,13S,14R)-] | 0.05 (≈ 0.061 µM) | 0.39 (≈ 0.476 µM) | 0.2 (≈ 0.244 µM) | 91.9 | 91.3 | 93.6 | 87.9 | 96.0 | 102.6 | 90.6 | 85.7 | 89.5 | 89.8 | 84.1 | 75.9 | 96.3% and 95.6% and 93.9% | 92.9% and 91.4% and 90.4% |
| CC[C@H]1OC(=O)[C@H](C)[C@@H](O[C@H]2C[C@@](C)(OC)[C@](O)(CN(C)CC)[C@H](C)O2)[C@H](C)[C@@H](O[C@@H]2O[C@H](C)C[C@H](N(C)C)[C@H]2O)[C@](C)(O)C[C@@H](C)CN(C)[C@H](C)[C@@H](O)[C@]1(C)O [Compound 1b, 1-Oxa-6-azacyclopentadecan-15-one, 13-[[2,6-dideoxy-4-C-[(ethylmethylamino)methyl]-3-C-methyl-3-O-methyl-α-L-ribo-hexopyranosyl]oxy]-2-ethyl-3,4,10-trihydroxy-3,5,6,8,10,12,14-heptamethyl-11-[[3,4,6-trideoxy-3-(dimethylamino)-β-D-xylo-hexopyranosyl]oxy]-, (2R,3S,4R,5R,8R,10R,11R,12S,13S,14R)-] | 0.05 (≈ 0.061 µM) | 0.39 (≈ 0.476 µM) | 0.39 (≈ 0.476 µM) | 96.1 | 92.1 | 96.5 | 92.4 | 98.8 | 96.1 | 90.0 | 81.5 | 93.8 | 94.0 | 86.5 | 76.5 | 94.9% and 93.0% and 93.3% | 91.8% and 96.1% and 95.3% |
